From patent US20250101430A1, “METHODS OF CANCER TREATMENT BY INHIBITION OF VASCULOGENESIS AND GLI1” (priority 2021, published 2025)
“Also recorded” adds a separate entry of the source.

Key:
HUVEC cells = conditions: cited from earlier work
H1 hESCs = assay: Spontaneous differentiation of WT H1 hESC in embryoid bodies in the presence of GANT-61, real time PCR; format: cell-based, human
Description: WT H1 hESC single cells were plated onto non-attachment plates and maintained in ESC media without FGF-β in the presence of FBS. Experimental group was cultured in the presence of GANT-61 (Tocris Biosciences, Cat. No. 3191) at concentration of 5 μM, while the control group was cultured in the presence of 5 μM DMSO. Media containing GANT-61 was replaced every other day. Embryoid bodies were collected at days 10 and 20. Markers for the three embryologic lineages were analyzed by real time PCR.
(§1) High-Capacity RNA-to-cDNA kit (Applied Biosystems) was used to reverse transcribe the isolated RNA. Each reaction tube included up to 2 μg of RNA. The reverse transcription reaction was performed according to manufacturer instructions via the MBS Satellite (0.2 G) Thermal Cycler (ThermoFisher Scientific). The qPCR reaction mix was prepared by adding 12 ng of cDNA from each sample to the PowerUp SYBR Green Master Mix (2×) (Applied Biosystems). qPCR was performed (Standard Cycling Mode, primer Tm<60° C.) via the 7500 Fast Real-Time PCR system [Applied Biosystems]. The 7500 v2.3 software was used for data collection and gene expression comparisons (2^−ΔΔCT method).

cancer cells = conditions: cited from earlier work
[1] = system: GLI1 and GLI2 transcription factors; conditions: cited from earlier work
hESCs = assay: Marker expression in hESCs maintained in mTeSR1 media with GANT-61; format: cell-based, human; conditions: 5 μM and 20 μM GANT-61, 6 or 12 days
Description: H1 (WA01), a well characterized human embryonic stem cell line,^33 was purchased from WiCell (Madison, WI, www.wicell.org/home/stem-cells/catalog-of-stem-cell-lines/wa01.cmsx). The cells were maintained on Matrigel-coated culture dishes in mTeSR1 medium (STEMCELL Technologies) or StemMACS iPS-Brew XF (Miltenyi Biotec).
as §1
Next, the effect of GANT-61 on GLI1 and SHH pathway members PTCH1 and SMO expression and on pluripotency marker expression in hESCs was evaluated.

[2] = system: human colon carcinoma cell lines; conditions: panel of 7 human colon carcinoma cell lines; cited from earlier work
DNA = conditions: cited from earlier work
GLI1 = target: T1, GLI1 (Homo sapiens, UniProt P08151); conditions: between zinc fingers 2 and 3 at sites E119 and E167; cited from earlier work
T1 sequence (P08151 1-1106): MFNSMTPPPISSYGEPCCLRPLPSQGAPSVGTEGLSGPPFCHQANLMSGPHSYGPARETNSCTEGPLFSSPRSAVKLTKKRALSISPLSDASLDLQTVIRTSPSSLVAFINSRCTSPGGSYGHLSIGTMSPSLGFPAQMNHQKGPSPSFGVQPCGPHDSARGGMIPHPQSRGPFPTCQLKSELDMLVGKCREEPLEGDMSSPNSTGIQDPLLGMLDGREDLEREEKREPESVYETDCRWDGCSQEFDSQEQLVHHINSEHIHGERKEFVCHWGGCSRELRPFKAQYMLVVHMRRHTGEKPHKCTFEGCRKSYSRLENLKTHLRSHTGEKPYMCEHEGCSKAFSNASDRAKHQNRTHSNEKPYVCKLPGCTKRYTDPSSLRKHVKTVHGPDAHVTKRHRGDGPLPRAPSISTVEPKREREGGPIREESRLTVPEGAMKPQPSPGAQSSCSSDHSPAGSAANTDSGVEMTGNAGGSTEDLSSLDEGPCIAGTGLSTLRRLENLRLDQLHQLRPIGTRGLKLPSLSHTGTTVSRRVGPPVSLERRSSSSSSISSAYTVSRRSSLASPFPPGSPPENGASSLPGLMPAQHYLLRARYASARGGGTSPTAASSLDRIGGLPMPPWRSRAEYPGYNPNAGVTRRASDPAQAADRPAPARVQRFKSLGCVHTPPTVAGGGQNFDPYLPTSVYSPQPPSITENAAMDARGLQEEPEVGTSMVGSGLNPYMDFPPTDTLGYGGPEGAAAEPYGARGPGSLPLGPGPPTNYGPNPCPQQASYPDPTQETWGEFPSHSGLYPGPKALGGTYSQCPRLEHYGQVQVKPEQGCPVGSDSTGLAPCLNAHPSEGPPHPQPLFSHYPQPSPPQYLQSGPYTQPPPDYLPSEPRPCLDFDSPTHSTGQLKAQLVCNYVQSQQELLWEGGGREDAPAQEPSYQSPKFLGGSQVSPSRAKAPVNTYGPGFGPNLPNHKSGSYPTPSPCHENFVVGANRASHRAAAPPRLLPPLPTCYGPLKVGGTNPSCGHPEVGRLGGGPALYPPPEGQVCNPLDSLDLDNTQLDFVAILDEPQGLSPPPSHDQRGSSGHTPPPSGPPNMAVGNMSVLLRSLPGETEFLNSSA

[3] = system: lung adenocarcinoma cell lines; conditions: cited from earlier work
Rh18 cells = assay: rt-PCR of GLI1 target gene Bcl-2 in GANT-61 treated Rh18 cells; format: cell-based
Description: as §1
(§2) First, to validate the effect of GANT-61 inhibition on GLI1 target genes, rt-PCR on GANT-61 treated Rh18 and Rh41 cells was performed. These cell lines express GLI1.

Rh41 cells = assay: rt-PCR of GLI1 target gene Bcl-2 in GANT-61 treated Rh41 cells; format: cell-based
Description: as §1, §2

[4] = 5 μM GANT-61, day 10 embryoid bodies
[5] = 5 μM GANT-61, during the differentiation process

SMILES: c1cc(-c2sc(-c3ccncc3)c(-c3ccncc3)c2-c2ccncc2)ccn1 [GANT-58]
- oxytocin induced HIF-1alpha expression (HUVEC cells; HUVEC cells): abrogate
- angiogenic capacity of HUVEC cells (HUVEC cells): reduction

SMILES: CN(C)c1ccccc1CN1CCCN(Cc2ccccc2N(C)C)C1c1ccncc1 [GANT-61]
- mesodermal commitment of H1 hESCs in embryoid bodies (H1 hESCs): inhibited
- GLI1 expression (H1 hESCs; 5 μM GANT-61, day 10): down-regulated
- GLI2 expression (H1 hESCs; 5 μM GANT-61, day 10): down-regulated
- PTCH1 expression (H1 hESCs; 5 μM GANT-61, day 10): down-regulated
- Plakoglobin expression (H1 hESCs; 5 μM GANT-61, day 10): down-regulated
- expression of pluripotency genes (H1 hESCs; 5 μM GANT-61, day 10): down-regulated
- ectodermal gene expression / differentiation (H1 hESCs; [4]): decreased; also recorded: inhibited
- endodermal gene expression / differentiation (H1 hESCs; [4]): significantly increased; also recorded: promoted
- mesodermal gene expression / differentiation (H1 hESCs; [4]): significantly increased; also recorded: promoted
- GLI1 expression (H1 hESCs; 5 μM GANT-61, day 20): continued to down-regulate
- GLI2 expression (H1 hESCs; 5 μM GANT-61, day 20): continued to down-regulate
- PTCH1 expression (H1 hESCs; 5 μM GANT-61, day 20): continued to down-regulate
- endodermal marker expression (H1 hESCs; 5 μM GANT-61, day 20): significantly decreased; also recorded: significantly reduced
- expression of pluripotency genes (H1 hESCs; 5 μM GANT-61, day 20): continued to down-regulate
- mesodermal marker expression (H1 hESCs; 5 μM GANT-61, day 20): significantly decreased; also recorded: significantly reduced
- GLI1 expression (H1 hESCs; [5]): significantly down-regulated
- PTCH1 expression (H1 hESCs; [5]): significantly down-regulated
- apoptosis (cancer cells): increases
- proliferation (cancer cells): reduces
- stem cell markers (cancer cells): reduces
- binding of GLI1 and GLI2 transcription factors to DNA [1]: inhibiting the binding
- GLI1 expression (hESCs): no significant differences
- PTCH1 expression (hESCs): no significant differences
- SMO expression (hESCs): no significant differences
- pluripotency marker expression (hESCs): no significant differences
- cell death [2]: extensive cell death
- binding to DNA (DNA): does not bind
- binding to GLI1 (GLI1): binds
- cancer initiating phenotype [3]: effective inhibiting
- Bcl-2 expression (Rh18 cells): significant down-regulation
- Bcl-2 expression (Rh41 cells): significant down-regulation
